Data published in paper PMC7525093, “Bis-Quinolinium Cyclophane Blockers of SK Potassium Channels Are Antagonists of M3 Muscarinic Acetylcholine Receptors” (Frontiers in Pharmacology, 2020).

How the values were obtained:
[1] = target: T1, human M3 muscarinic acetylcholine receptor (Homo sapiens, UniProt P20309); test: R-CEPIAer ER calcium assay of Gq-coupled receptor activation, M3-transfected CHO-K1 cells; type: cell-based
T1 construct: host or cells: CHO-K1 cells, stably transfected
Method: (§1) The binding of antagonists to Gq-coupled receptors was determined by measuring IP3-mediated calcium depletion from the endoplasmic reticulum (ER). This was accomplished using CHO-K1 cells stably transfected with human M3 muscarinic acetylcholine receptor (CEM3000000, cDNA Resource Center, Bloomsburg University) and R-CEPIAer, a low affinity ER-targeted calcium indicator fluorescent protein ([Suzuki et al., 2014]). R-CEPIAer reporting of ER calcium concentration was assessed using 564 nm excitation light (>590 long-pass emission) at 20 second intervals on a Nikon swept-field confocal microscope using slit-scan mode, 2x2 Binning, and 100 millisecond frames. F/Fmax was fluorescence intensity normalized to maximal fluorescence intensity during the experiment. The response of cells to Gq-coupled receptor agonist were measured as the change in F/Fmax (ΔF/Fmax) from preagonist value to fluorescence minimum during agonist application (that occurs by IP3-mediated ER calcium depletion). […] Perfusion of each agonist application was for 2 min, while the antagonist overlapped and preceded the second agonist application by 3 min. […] IC50 was calculated by assaying fractional inhibition using a dose-response of antagonist concentrations (i.e. Figure 1D ). For assays of other receptors such as the M1 and M5 muscarinic receptors, H1 histamine and P2Y1 purinergic receptors, these receptors were transiently co-transfected with the pCMV R-CEPIAer plasmid (a gift from Masamitsu Iino (Addgene plasmid # 58216; http://n2t.net/addgene:58216; RRID : Addgene_58216)) into CHO cells using polyethylenimine [according to previous methods ([Longo et al., 2013])]. IC50 and EC50 values were estimated by fitting the dose-response relationship to a Hill equation.
To obtain a pKB using a Schild analysis ([Arunlakshana and Schild, 1959]), the acetylcholine EC50 was measured in the absence of UCL1684 and EC50′ measured in the presence of increasing concentrations of UCL1684. These values were used to calculate a dose ratio (DR = EC50′/EC50) for each UCL1684 concentration. The log(DR − 1) was plotted vs. log UCL1684 concentrations and fit to a linear equation where the theoretical X-intercept was used to estimate a pKB.

histamine receptor H1 = target: T2, histamine receptor H1 (Homo sapiens, UniProt P35367); test: R-CEPIAer ER calcium assay, CHO cells transfected with H1 receptor; type: cell-based; conditions: data not shown
T2 construct: expressed in transfected cells; host or cells: CHO cells, transiently co-transfected with pCMV R-CEPIAer
T2 sequence (P35367 whole entry): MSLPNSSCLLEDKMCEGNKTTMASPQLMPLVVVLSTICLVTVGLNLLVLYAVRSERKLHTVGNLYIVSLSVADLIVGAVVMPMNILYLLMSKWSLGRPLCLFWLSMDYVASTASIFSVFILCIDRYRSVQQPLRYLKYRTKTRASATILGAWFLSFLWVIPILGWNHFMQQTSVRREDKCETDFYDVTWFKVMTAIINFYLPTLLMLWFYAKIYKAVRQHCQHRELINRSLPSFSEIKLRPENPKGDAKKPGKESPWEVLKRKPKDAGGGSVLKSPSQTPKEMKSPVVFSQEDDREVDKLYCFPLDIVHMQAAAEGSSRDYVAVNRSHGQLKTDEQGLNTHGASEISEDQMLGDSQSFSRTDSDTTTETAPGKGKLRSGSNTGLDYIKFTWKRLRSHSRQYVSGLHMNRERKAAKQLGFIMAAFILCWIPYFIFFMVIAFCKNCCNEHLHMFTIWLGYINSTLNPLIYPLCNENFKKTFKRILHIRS
Method: as §1, with “For assays of other receptors such as the M1 and M5 muscarinic receptors, H1 histamine and P2Y1 purinergic receptors, these receptors were transiently co-transfected with the pCMV R-CEPIAer plasmid (a gift from Masamitsu Iino (Addgene plasmid # 58216; http://n2t.net/addgene:58216; RRID : Addgene_58216)) into CHO cells using polyethylenimine [according to previous methods ([Longo et al., 2013])]. IC50 and EC50 values were estimated by fitting the dose-response relationship to a Hill equation.” left out

aorta = test: Isometric aortic ring tension measurement; set-up: species or system mouse; conditions: 3.5 μM; precontracted to 300 nM phenylephrine
Method: Mice used in these studies were BALB/C mice from Jackson Labs. All animal procedures were reviewed and approved by the University of Texas Health Science Center at San Antonio Institutional Animal Care and Use Committee. For tracheal constriction studies, animals were deeply anesthetized with isoflurane and then sacrificed by cervical dislocation. Isometric tracheal contraction measurements were performed as previously described ([Semenov et al., 2012]). Trachea were removed and surrounding tissues dissected in ice-cold physiologic saline solution (PSS) consisting of 119 mM NaCl, 4.7 mM KCl, 2.0 mM CaCl2, 1.0 mM KH2PO4, 1.17 mM MgSO4, 18 mM NaHCO3, 0.026 mM EDTA, 11 mM glucose, and 12.5 mM sucrose. Trachea were cut below the pharynx and above the primary bronchus bifurcation. Two metal wires, attached to a force transducer and micrometer (Radnoti, LLC), were threaded into the lumen of the trachea. Trachea were placed into an oxygenated organ bath (95% O2, 5% CO2), at 37°C, pH 7.35 (after bubbling with 95% O2–5% CO2). Tracheal resting tension was readjusted to 1 gram over 1 h and then challenged with 67 mM potassium PSS with NaCl adjusted to 56.7 mM to maintain proper osmolarity (KPS). Trachea were challenged two or more times until reproducible contractile responses were achieved. All subsequent experimental drug responses were normalized to the KPS response. […]

SK2 = target: SK2; set-up: method as in Benton D.C. et al., 2013; conditions: 125I-Apamin competition; ref Benton D.C. et al., 2013; read-out: Ki, SK2 channels; cited from earlier work

T1 sequence (P20309 whole entry): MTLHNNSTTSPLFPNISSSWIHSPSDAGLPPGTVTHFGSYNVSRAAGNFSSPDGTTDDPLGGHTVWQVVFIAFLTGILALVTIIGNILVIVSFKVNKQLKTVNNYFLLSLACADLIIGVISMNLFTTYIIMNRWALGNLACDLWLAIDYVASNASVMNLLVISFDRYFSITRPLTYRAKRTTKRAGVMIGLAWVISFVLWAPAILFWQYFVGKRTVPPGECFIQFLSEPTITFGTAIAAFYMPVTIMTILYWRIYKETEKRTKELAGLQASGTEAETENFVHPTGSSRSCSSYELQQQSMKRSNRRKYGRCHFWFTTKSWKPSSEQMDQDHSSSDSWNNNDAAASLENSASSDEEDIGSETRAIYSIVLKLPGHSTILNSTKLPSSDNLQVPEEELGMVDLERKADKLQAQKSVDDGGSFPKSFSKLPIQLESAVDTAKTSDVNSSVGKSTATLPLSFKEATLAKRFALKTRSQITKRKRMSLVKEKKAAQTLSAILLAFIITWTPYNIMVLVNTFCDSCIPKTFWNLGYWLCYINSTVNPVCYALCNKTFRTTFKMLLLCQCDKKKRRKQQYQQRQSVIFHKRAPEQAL

## c1cc2cc(c1)C[n+]1ccc(c3ccccc31)NCc1ccc(cc1)CNc1cc[n+](c3ccccc13)C2 [UCL 1684, 6,12,19,20,25,26-Hexahydro-5,27:13,18:21,24-trietheno-11,7-metheno-7H-dibenzo [b,n] [1,5,12,16]tetraazacyclotricosine-5,13-diium dibromide]
[1]
  IC50: 1.5 µM
  Nature of antagonism at M3 receptors: competitive antagonist
[1]; 0.5 μM carbachol, Hill equation fit
  Hill slope of inhibition curve, M3 receptor: 1.8 ± 0.29
[1]; 5 μM antagonist, 0.5 μM carbachol, 0 = none, 1 = complete inhibition
  Fractional inhibition of second carbachol response: 0.99
[1]; linear regression of log(DR-1) vs log UCL1684
  Schild plot slope: 0.94
[1]; read-out: Ki / KB from Schild analysis
  Kb: 0.155 µM
Histamine receptor H1
  Fractional inhibition of H1 receptor response: -0.008 ± 0.04
aorta
  Relaxation response of aorta: 7.8 ± 4.3
SK2
  Ki: 0.001 µM
